Reference: patent publication US20130029942A1, “COMPOUNDS AND THERAPEUTICAL USES THEREOF” (Myrexis, Inc., priority 2003, published 2013)
pEC50, pIC50: −log10 of the molar value. Structures can show the parent of a compound that is named as a salt. Where two headings read alike, the source gives them in different places.

How the values were obtained:
[1] = tested on: P388 cells; test: Cytotoxicity (ATP-lite cell viability), P388; type: cell-based, murine; details: Mus musculus; P388, 72 hours
Procedure: (§1) Cytotoxicity of compounds in multidrug resistant cells can be determined by administering compounds to cell lines that overexpress the multidrug resistance pump MDR-1 and determining the viability of the cell lines.
(§2) NCI-ADR/Res, MCF-7, P388, and P388/ADR cell lines were obtained from American Type Culture Collection (Manassas, Va.) and maintained in RPMI-1640 media supplemented with 10% FCS, 10 units/ml penicillin and streptomycin, 2 mM Glutamax and 1 mM sodium pyruvate (Invitrogen Corporation, Carlsbad, Calif.). For compound testing, cells were plated in 96 well dishes at a concentration of 1.5×10^4 cells/well. Cells were allowed to adhere to the plate overnight and then incubated with compounds at final concentrations ranging from 0.13 nM to 10 uM for 72 hours. Cell viability was then assessed using the ATP-lite reagent (Perkin Elmer, Foster City, Calif.). Plates were read on a Wallac Topcount luminescence reader (Perkin Elmer, Foster City, Calif.) and the results graphed in Prism software (Graphpad Software, Inc., San Diego, Calif.). Non-linear regression with variable slope analysis was performed to obtain IC50 concentration values.
(§3) Example 1 compound, docetaxel, and vinblastine were tested for their ability to kill multidrug resistant cells by administering the compounds to NCI-ADR/Res, MCF-7 cells, P388 and P388/ADR cells and determining the viability of the cells.

[2] = tested on: NCI-ADR/Res cells; test: Cytotoxicity (ATP-lite cell viability), MDR-1 over-expressing NCI-ADR/Res; type: cell-based; details: Homo sapiens, 72 hours
Procedure: as §1, §2, §3

[3] = tested on: P388/ADR cells; test: Cytotoxicity (ATP-lite cell viability), MDR-1 over-expressing P388/ADR; type: cell-based; details: Mus musculus, 72 hours
Procedure: as §1, §2, §3

[4] = tested on: MCF-7 cells; test: Cytotoxicity (ATP-lite cell viability), MCF-7; type: cell-based; details: Homo sapiens, MCF7; MCF-7, 72 hours
Procedure: as §1, §2, §3

[5] = tested on: T-47D cells; test: Caspase cascade activation / induction of apoptosis in T-47D cells (fluorogenic N-(Ac-DEVD)-N'-ethoxycarbonyl-R110 substrate); type: cell-based, human; details: Homo sapiens, T47D; for pEC50: T-47D
[6] = biological target: tubulin (Bos taurus, UniProt P81947+Q6B856); test: Inhibition of tubulin polymerization (DAPI fluorescence); type: biochemical; details: MAP-rich tubulin, 30 minutes at 37° C.
Chain of tubulin (P81947 whole entry): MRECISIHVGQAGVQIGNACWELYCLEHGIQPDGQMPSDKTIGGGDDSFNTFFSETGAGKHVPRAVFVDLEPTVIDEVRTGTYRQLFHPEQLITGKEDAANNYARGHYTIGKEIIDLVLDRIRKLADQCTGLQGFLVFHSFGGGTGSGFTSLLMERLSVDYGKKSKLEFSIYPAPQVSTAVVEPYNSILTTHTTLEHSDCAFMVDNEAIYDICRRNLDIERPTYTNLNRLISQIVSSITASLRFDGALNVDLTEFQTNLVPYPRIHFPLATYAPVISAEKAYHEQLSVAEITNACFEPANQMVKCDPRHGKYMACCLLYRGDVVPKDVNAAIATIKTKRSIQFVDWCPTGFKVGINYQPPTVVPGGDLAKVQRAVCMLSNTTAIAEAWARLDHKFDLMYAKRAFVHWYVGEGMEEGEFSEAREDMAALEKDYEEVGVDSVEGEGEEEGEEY
Chain of tubulin (Q6B856 whole entry): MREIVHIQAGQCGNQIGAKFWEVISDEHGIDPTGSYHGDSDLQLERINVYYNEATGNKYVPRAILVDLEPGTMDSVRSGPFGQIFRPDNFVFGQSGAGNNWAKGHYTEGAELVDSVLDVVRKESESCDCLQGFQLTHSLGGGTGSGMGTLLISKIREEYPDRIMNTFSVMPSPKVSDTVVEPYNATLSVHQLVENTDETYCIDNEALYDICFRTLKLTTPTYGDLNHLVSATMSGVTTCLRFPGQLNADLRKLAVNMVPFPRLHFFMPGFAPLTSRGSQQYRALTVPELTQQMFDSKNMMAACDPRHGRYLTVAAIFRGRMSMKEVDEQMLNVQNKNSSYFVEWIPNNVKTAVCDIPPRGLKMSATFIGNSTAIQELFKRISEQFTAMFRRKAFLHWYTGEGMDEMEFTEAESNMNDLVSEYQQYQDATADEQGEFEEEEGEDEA
Procedure: Lyophilized tubulin (Cytoskeleton #ML113, 1 mg, MAP-rich) was assayed for the effect of the test compound on tubulin polymerization as measured by change in fluorescence for 4′,6-diamidino-2-phenylindole (DAPI) (Barron, D. M. et al. Analytical Biochem., 2003, 315, 49-56). 1 μl of serial dilutions of each test compound (from 100×DMSO stock) was added in 96 well plate format and preincubated for 30 minutes with 94 ul of the non-GTP supplemented tubulin supernatant. 5 μl of DAPI/GTP solution was added to initiate polymerization and incubated for 30 minutes at 37° C. Fluorescence was read with excitation 350 nm, emission wavelength 485 nm on a Tecan Spectraflour Plus. Polymerized tubulin (DMSO and with the tubulin stabilizer Taxol® (paclitaxel)) gives a higher DAPI fluorescence as compared to non-polymerized tubulin (vinblastine and colchicine used to determine baseline).

[7] = tested on: DLD cells; test: Inhibition of cell proliferation (GI50), CellTiter-Glo, DLD; type: cell-based; details: Homo sapiens; DLD, 48 h; read-out: GI50
Procedure: (§4) T-47D, DLD, H1299, MX-1 and SW620 cells were grown and harvested as in Example 262. […] An aliquot of 45 μL of cells was added to a well of a 96-well microtiter plate containing 5 μL of a 10% DMSO in RPMI-1640 media solution without compound as the control sample for maximal cell proliferation (Lmax). The samples were mixed by agitation and then incubated at 37° C. for 48 h in a 5% CO2—95% humidity incubator. After incubation, the samples were removed from the incubator and 25 μL of CellTiter-Glo™ reagent (Promega) was added. The samples were mixed by agitation and incubated at room temeperature for 10-15 min. Plates were then read using a luminescent plate reader (Model SPECTRAfluor Plus, Tecan) to give Ltest values.
(§5) The samples were mixed by agitation and then incubated at 37° C. for 0.5 h in a 5% CO2—95% humidity incubator. After incubation, the samples were removed from the incubator and 25 μL of CellTiter-Glo™ reagent (Promega) was added. The samples were mixed by agitation and incubated at 37° C. for 10-15 min at room temperature in a 5% CO2—95% humidity incubator. Fluorescence was read as above, (LStart) defining luminescence for initial cell number used as baseline in GI50 determinations.

[8] = tested on: H1299 cells; test: Inhibition of cell proliferation (GI50), CellTiter-Glo, H1299; type: cell-based; details: Homo sapiens, NCI-H1299, 48 h; read-out: GI50
Procedure: as §4, §5

[9] = tested on: T-47D cells; test: Inhibition of cell proliferation (GI50), CellTiter-Glo, T-47D; type: cell-based; details: Homo sapiens, T47D; T-47D, 48 h; read-out: GI50
Procedure: as §4, §5

[10] = tested on: SW620 cells; test: Inhibition of cell proliferation (GI50), CellTiter-Glo, SW620; type: cell-based; details: Homo sapiens, SW-620; SW620, 48 h; read-out: GI50
Procedure: as §4, §5

[11] = tested on: MX-1 cells; test: Inhibition of cell proliferation (GI50), CellTiter-Glo, MX-1; type: cell-based; details: Homo sapiens, MX1; MX-1, 48 h; read-out: GI50
Procedure: as §4, §5

[12] = tested on: P388 murine leukemia cell line; test: P388 cytotoxicity (ATP-Lite, 72 hours); type: cell-based; details: Mus musculus, P388, 72 hours
[13] = 24 hr, read-out: T-47D (24 hr) EC50
[14] = Table III, time not given, repeats 24 hr or 48 hr T-47D values of Table I, read-out: Caspase activation (EC50 nM)
[15] = 24 h, read-out: T-47D (24 hr) EC50 (nM)
[16] = read-out: Caspase activation (EC50 nM)
[17] = 48 hr, read-out: T-47D (48 hr) EC50

Row | SMILES | pEC50 [5, 13] | EC50 [5, 14] [nM] | pIC50 [6] | pEC50 [5, 17] | also measured
1 | CC(=O)O[C@@]12CO[C@@H]1C[C@H](O)[C@@]1(C)C(=O)[C@H](O)C3=C(C)[C@@H](OC(=O)[C@H](O)[C@@H](NC(=O)OC(C)(C)C)c4ccccc4)C[C@@](O)([C@@H](OC(=O)c4ccccc4)[C@H]21)C3(C)C [Docetaxel, docetaxel] |  |  |  |  | IC50 [1]: 7 nM; IC50 [2]: 410 nM; IC50 [3]: 127 nM; IC50 [4]: 2 nM
2 | Cc1ccc(N(C)c2nc(Cl)nc3ccccc23)cc1 [Example 2, (2-Chloro-quinazolin-4-yl)-(4-methyl-phenyl)-methyl-amine] | 7.51 | 31 | 5.52 |  | 
3 | CN(c1ccccc1)c1nc(Cl)nc2ccccc12 [Example 6, (2-Chloro-quinazolin-4-yl)-phenyl-methyl-amine] |  |  | 5.40 |  | EC50 [5, 15]: 219 nM; EC50 [5, 16]: 219 nM
4 | COc1ccc(Nc2nc(Cl)nc3ccccc23)cc1 [Example 7, (2-Chloro-quinazolin-4-yl)-(4-methoxy-phenyl)-amine] | < 5.00 | > 10000 | < 4.30 | < 5.00 | GI50 [7]: > 10000 nM; GI50 [8]: > 10000 nM; GI50 [9]: > 10000 nM; GI50 [10]: > 10000 nM; GI50 [11]: > 10000 nM
5 | COc1ccc(N(C)c2nc(NC/C=C(\C)CCC=C(C)C)nc3ccccc23)cc1 [Example 13, N^2-(3,7-Dimethyl-octa-2,6-dienyl)-N^4-(4-methoxy-phenyl)-N^4-methyl-quinazoline-2,4-diamine] | 6.59 | 260 | 5.22 |  | 
6 | COc1ccc(N(C)c2nc(Cl)nc3cc(OC)c(OC)cc23)cc1 [Example 20, (2-Chloro-6,7-dimethoxyquinazolin-4-yl)-(4-methoxy-phenyl)-methyl-amine] | 6.79 | 161 | 5.52 |  | 
7 | COc1ccc(N(C)c2ncnc3c2CCCC3)cc1 [Example 25, (5,6,7,8-Tetrahydro-quinazolin-4-yl)-(4-methoxy-phenyl)-methyl-amine] |  | 42 | 5.70 | 7.38 | 
8 | COc1ccc(OC)c(Nc2nc(Cl)nc3ccccc23)c1 [Example 31, (2-Chloro-quinazolin-4-yl)-(2,5-dimethoxy-phenyl)-amine] | 6.50 | 317 | 5.00 | 6.25 | 
9 | COc1ccc(N(C)c2ncnc3ccccc23)cc1 [Example 34, (4-Methoxy-phenyl)-methyl-quinazolin-4-yl-amine] |  |  | 6.00 |  | 
10 | Cc1ccc(N(C)c2ncnc3ccccc23)cc1 [Example 35, (4-Methyl-phenyl)-methyl-quinazolin-4-yl-amine] | 6.85 | 141 | 5.40 |  | 
11 | COc1ccc(N(C)c2nc(Cl)nc3ccccc23)cn1 [Example 36, (2-Chloro-quinazolin-4-yl)-(6-methoxy-pyridin-3-yl)-methyl-amine] | 8.22 | 6 | > 6.00 |  | GI50 [7]: 89 nM; GI50 [8]: 53 nM; GI50 [9]: 111 nM; GI50 [10]: 70 nM; GI50 [11]: 73 nM
12 | COc1ccc(N(C)c2nc(Cl)nc3ccccc23)c(OC)c1 [Example 41, (2-Chloro-quinazolin-4-yl)-(2,4-dimethoxy-phenyl)-methyl-amine] |  | 20 | > 6.00 | 7.70 | 
13 | COc1ccc(OC)c(N(C)c2nc(Cl)nc3ccccc23)c1 [Example 42, (2-Chloro-quinazolin-4-yl)-(2,5-dimethoxy-phenyl)-methyl-amine] | 6.55 | 282 | 5.30 | 6.58 | 
14 | COc1cccc(N(C)c2nc(Cl)nc3ccccc23)c1 [Example 43, (2-Chloro-quinazolin-4-yl)-(3-methoxy-phenyl)-methyl-amine] |  | 34 | 5.70 | 7.47 | 
15 | COc1ccccc1N(C)c1nc(Cl)nc2ccccc12 [Example 44, (2-Chloro-quinazolin-4-yl)-(2-methoxy-phenyl)-methyl-amine] |  | 501 | 5.00 | 6.30 | 
16 | COc1ccc(N(C)c2nccc3ccccc23)cc1 [Example 65, (Isoquinolin-1-yl)-(4-methoxy-phenyl)-methyl-amine] |  | 599 | 5.00 | 6.22 | 
17 | COc1ccc(N(C)c2nc(C)nc3ccccc23)cc1 [Example 72, (4-Methoxy-phenyl)-methyl-(2-methyl-quinazolin-4-yl)-amine hydrochloride] |  |  | > 6.00 |  | EC50 [5, 15]: 2 nM; EC50 ([5]; 48 h, read-out: T-47D (48 hr) EC50 (nM)): 2 nM; EC50 [5, 16]: 2 nM
18 | COc1ccc(N(C)c2nc(C)nc3ccc(CN)cc23)cc1 [Example 259, (6-Aminomethyl-2-methyl-quinazolin-4-yl)-(4-methoxy-phenyl)-methyl-amine] |  |  |  |  | pIC50 [12]: 6.11
19 | CCOc1ccc(N(C)c2nc(CN3C(=O)c4ccccc4C3=O)nc3ccccc23)cc1Cl [Example 260, 2-{4-[(3-Chloro-4-ethoxy-phenyl)-methyl-amino]-quinazolin-2-ylmethyl}-isoindole-1,3-dione] |  |  |  |  | pIC50 [12]: 6.33
20 | CCOc1ccc(N(C)c2nc(CN)nc3ccccc23)cc1Cl [Example 261] |  |  |  |  | pIC50 [12]: 8.05
21 | CC[C@]1(O)C[C@@H]2CN(CCc3c([nH]c4ccccc34)[C@@](C(=O)OC)(c3cc4c(cc3OC)N(C)[C@H]3[C@@](O)(C(=O)OC)[C@H](OC(C)=O)[C@]5(CC)C=CCN6CC[C@]43[C@@H]65)C2)C1 [Vinblastine, vinblastine] |  |  |  |  | IC50 [1]: 2.6 nM; IC50 [2]: 3 nM; IC50 [3]: 2.8 nM; IC50 [4]: 0.5 nM
